The source of these data is patent US20170349532A1, “CATIONIC LIPID” (Kyowa Hakko Kirin Co., Ltd., priority 2011, published 2017).

The structures appear in SMILES notation.

The test system of one data set is CKAP5 mRNA in MIA PaCa-2 subcutaneous tumor. As to the kind of experiment: Test Example 3: in vivo mRNA knockdown evaluation in MIA PaCa-2 xenograft. Also on record: species or system SCID mouse. To be noted: Example 122 preparation with CKAP5 siRNA; 48 hours after intravenous administration, 10 mg/kg siRNA, MIAPaCa-2 xenograft mouse. On the procedure:
The preparations obtained in Example 122 and 123 are subjected to an in vivo mRNA knockdown evaluation test in the following manner.
MIA PaCa-2 that is a cell line derived from human pancreas cancer is received from the JCRB Cell Bank and cultivated with high glucose-containing DMEM (manufactured by GIBCO, 11995-073) containing a 10% inactivated fetal calf serum (manufactured by GIBCO) and 1 vol % penicillin-streptomycin (manufactured by GIBCO, 26253-84) under conditions at 37° C. and 5% CO2. […] Before the administration and 48 hours after the administration, the weight of the mouse is measured. […]
With respect to the obtained tumor sample, 1 mL of a Trizol reagent (manufactured by Invitrogen, 15596-018) and zirconia beads of 5 mm are added to a 2-mL round bottom tube containing the sample charged therein, and the contents are pulverized by Tissue lyser II (manufactured by QIAGEN) under conditions of 1/25 freq, 1.5 minutes×2 times. […] A concentration of the extracted RNA is measured by a trace absorption photometer Dropsense96 (Trinean), and RNA corresponding to from 200 to 1,000 ng is subjected to reverse transfer with a Transcriptor (manufactured by Roche, 4897030). […] An mRNA amount of the specimen is calculated as a relative proportion when the mRNA amount of CKAP5 mRNA was defined as 1. […]
On to `CCCCC/C=C\C/C=C\CCCCCCCC(=O)OC[C@@H]1CN(C)C[C@H]1COC(=O)CCCCCCC/C=C\C/C=C\CCCCC` (relative stereo) [Compound 110, trans-1-Methyl-3,4-bis(((9Z,12Z)-octadec-9,12-dienoyloxy)methyl)pyrrolidine], for which the “amount of CKAP mRNA in tumor, relative proportion” value came out at 0.28 and the “in vivo mRNA knockdown rate” value is reported as 72%.

Tested on in the next data set: not listed separately
Put plainly: Average particle diameter of preparation (Zetasizer Nano ZS). The data set is classed as physicochemical. To be noted: Comparative Examples 1 to 8, prepared as Example 118 with apo-b siRNA. The method, boiled down:
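Lipid nanoparticles formed by mixing cationic lipid/PEG-DMPE Na/DSPC/cholesterol (8.947/1.059/5.708/13.697 mmol/L in 90% ethanol, 37 °C) with apo-b siRNA in Tris-EDTA/citrate buffer pH 5.0, then diluted with citrate/NaCl pH 6.0 and DPBS to 10 μM siRNA. Mean complex diameter measured by dynamic light scattering.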
`CCCCC/C=C\C/C=C\CCCCCCCCOC1CN(Cc2ccccc2)C[C@H]1OCCCCCCCC/C=C\C/C=C\CCCCC` (stereo in doubt) [Compound VI-3, (3R,4R)-1-Benzyl-3,4-bis((9Z,12Z)-octadec-9,12-dienyloxy)pyrrolidine, reference compound]: the “average particle diameter of the complex between the cationic lipis and the nucleic acid in the preparation” value was 167.8 nm.

Still in this data set, the particulars now being: average particle diameter of cationic lipid/nucleic acid complex; Example 118 preparation: compound/PEG-DMPE Na/DSPC/cholesterol with apo-b siRNA.
`CCCCC/C=C\C/C=C\CCCCCCCC(=O)OC[C@@H]1CN(C)C[C@H]1COC(=O)CCCCCCC/C=C\C/C=C\CCCCC` (relative stereo) [Compound 110, trans-1-Methyl-3,4-bis(((9Z,12Z)-octadec-9,12-dienoyloxy)methyl)pyrrolidine]: the “Particle diameter of Preparetion” value was determined as 131.6 nm. The same measure, in the same setting: the figure for `CCCCCCCC/C=C\CCCCCCCCOC[C@@H]1C[N+](C)(C)C[C@H]1COCCCCCCCC/C=C\CCCCCCCC.[Cl-]` (relative stereo) [Compound 111, trans-1,1-Dimethyl-3,4-bis(((Z)-octadec-9-enyloxy)methyl)pyrrolidinium chloride] is 112.0 nm; for `CCCCCCCC/C=C\CCCCCCCC(=O)OC[C@@H]1CNC[C@H]1COC(=O)CCCCCCC/C=C\CCCCCCCC` (relative stereo) [Compound 104, trans-3,4-bis(((Z)-Octadec-9-enoyloxy)methyl)pyrrolidine] it is 141.5 nm.

On to `CCCCCCCC/C=C\CCCCCCCCOCCN(CCOCCCCCCCC/C=C\CCCCCCCC)C(=O)CCCCCN` [Compound 88, 6-Amino-N,N-bis(2-((Z)-octadec-9-enyloxy)ethyl)], for which the “Particle diameter of Preparetion” value stood at 131.9 nm. Consider `CCCCC/C=C\C/C=C\CCCCCCCCOC[C@@H]1C[N+](C)(C)C[C@H]1COCCCCCCCC/C=C\C/C=C\CCCCC.[Cl-]` (relative stereo) [Compound 112, trans-1,1-Dimethyl-3,4-bis(((9Z,12Z)-octadec-9,12-dienyloxy)methyl)pyrrolidinium chloride], for which the “Particle diameter of Preparetion” value turned out to be 119.2 nm. Turning to `CCCCC/C=C\C/C=C\CCCCCCCCCCOC[C@@H]1CN(C(=O)[C@@H](N)CCCCN)C[C@H]1COCCCCCCCCCC/C=C\C/C=C\CCCCC` [Compound 115, trans-1-((S)-2,6-Diaminohexanoyl)-3,4-bis(((11Z,14Z)-icos-11,14-dienyloxy)methyl)pyrrolidine], the “Particle diameter of Preparetion” value came out at 152.8 nm. On the same count and under the same terms, the figure for `CCCCC/C=C\C/C=C\CCCCCCCCO[C@@H]1CN(CCCO)C[C@H]1OCCCCCCCC/C=C\C/C=C\CCCCC` [Compound 56, 3-((3R,4R)-3,4-bis((9Z,12Z)-Octadec-9,12-dienyloxy)pyrrolidin-1-yl)propan-1-ol] is 120.3 nm.

Turning to `CCCCCCCCCCC/C=C\CCCCCO[C@@H]1CN(C)C[C@H]1OCCCCC/C=C\CCCCCCCCCCC` [Compound 15, (3R,4R)-1-Methyl-3,4-bis((Z)-octadec-6-enyloxy)pyrrolidine], the “Particle diameter of Preparetion” value stood at 139.1 nm.

As for `CCCCC/C=C\C/C=C\CCCCCCCCO[C@@H]1CN(CCC(N)=O)C[C@H]1OCCCCCCCC/C=C\C/C=C\CCCCC` [Compound 57, 3-((3R,4R)-3,4-bis((9Z,12Z)-Octadec-9,12-dienyloxy)pyrrolidin-1-yl)propanamide], the “Particle diameter of Preparetion” value came out at 159.2 nm. The same measure, in the same setting: the figure for `CCCCCCCC/C=C\CCCCCCCCOCCN(CCOCCCCCCCC/C=C\CCCCCCCC)CC(O)CO` (stereo not drawn) [Compound 82, 3-(bis(2-((Z)-Octadec-9-enyloxy)ethyl)amino)propan-1,2-diol] is 125.7 nm; for `CCCCCCCC/C=C\CCCCCCCC(=O)OCC[N+](C)(C)CCOC(=O)CCCCCCC/C=C\CCCCCCCC.[Cl-]` [Compound 81, N,N-diMethyl-N,N-bis(2-((Z)-octadec-9-enoyloxy)ethyl)aminium chloride] it is 103.4 nm; for `CCCCC/C=C\C/C=C\CCCCCCCCO[C@@H]1CN(CC(O)COC)C[C@H]1OCCCCCCCC/C=C\C/C=C\CCCCC` (stereo partly drawn) [Compound 55, 1-(3R,4R)-3,4-bis(((9Z,12Z)-Octadec-9,12-dienyloxy)pyrrolidine-1-yl)-3-methoxypropan-2-ol] it is 139.6 nm.

As to `CCCCCC/C=C\CCCCCCCCO[C@@H]1CN(C)C[C@H]1OCCCCCCCC/C=C\CCCCCC` [Compound 14, (3R,4R)-3,4-bis((Z)-Hexadec-9-enyloxy)-1-methylpyrrolidine], the “Particle diameter of Preparetion” value amounted to 139.3 nm. The same measure, in the same setting: the figure for `CCCCCCCC/C=C\CCCCCCCC(=O)O[C@@H]1CN(C(=O)CCN(C)C)C[C@H]1OC(=O)CCCCCCC/C=C\CCCCCCCC` [Compound 30, (3R,4R)-1-(3-(Dimethylamino)propanoyl)pyrrolidine-3,4-diyl di((Z)-octadec-9-enoate)] is 132.7 nm; for `CCCCCCCC/C=C\CCCCCCCCOCCN(CCOCCCCCCCC/C=C\CCCCCCCC)C(=O)[C@@H](N)CN` [Compound 92, (S)-2,3-Diamino-N,N-bis(2-((Z)-octadec-9-enyloxy)ethyl)propanamido] it is 143.9 nm. For the compound `CCCCC/C=C\C/C=C\CCCCCCCCO[C@H]1CNC[C@@H]1OCCCCCCCC/C=C\C/C=C\CCCCC` (stereo in doubt) [Compound 43, (3S,4S)-3,4-bis((9Z,12Z)-Octadec-9,12-dienyloxy)pyrrolidine], the “Particle diameter of Preparetion” value is given as 150.0 nm. Same read-out and setting: under `CCCCC/C=C\C/C=C\CCCCCCCCO[C@H]1C[N+](C)(C)C[C@H]1OCCCCCCCC/C=C\C/C=C\CCCCC.[Cl-]` [Compound 21, (3R,4,5)-1,1-Dimethyl-3,4-bis((9Z,12Z)-octadec-9,12-dienyloxy)pyrrolidinium chloride] stands 112.4 nm.

Regarding `CCCCCCCC/C=C\CCCCCCCCOCCN(CCOCCCCCCCC/C=C\CCCCCCCC)C(=O)CCN` [Compound 87, 3-Amino-N,N-bis(2-((Z)-octadec-9-enyloxy)ethyl)propanamido], the “Particle diameter of Preparetion” value was 136.3 nm. Regarding `CCCCC/C=C\C/C=C\CCCCCCCCO[C@H]1CN(C)C[C@@H]1OCCCCCCCC/C=C\C/C=C\CCCCC` (stereo in doubt) [Compound 50, (3S,4S)-1-Methyl-3,4-bis((9Z,12Z)-octadec-9,12-dienyloxy)pyrrolidine], the “Particle diameter of Preparetion” value is 129.2 nm.

As for `CCCCCCCCCCCCCCCCOCCN(C)CCOCCCCCCCCCCCCCCCC` [Compound 76, N,N-bis(2-(Hexadecyloxy)ethyl)-N-methylamine], the “Particle diameter of Preparetion” value was 133.6 nm. Turning to `CCCCC/C=C\C/C=C\CCCCCCCC(=O)OCCN(CCOC(=O)CCCCCCC/C=C\C/C=C\CCCCC)C(=O)OCCCN(C)C` [Compound 117, 3-(Dimethylamino)propyl bis(2-((9Z,12Z)-1-oxooctadec-9,12-dienyloxy)ethyl)carbamate], the “Particle diameter of Preparetion” value was 155.9 nm.
